Key:
[1] = 100 kPa, Liquid; for mass density: Vibrating tube method; for speed of sound: Frequency=5 MHz, Pulse-echo method
[2] = xn = mol fraction of the nth substance listed; settings: 100 kPa, Liquid, x2 = 0; for mass density: Vibrating tube method; for speed of sound: Frequency=5 MHz, Pulse-echo method

OCCOCCOCCO [triethylene glycol]
[1]
Settings | mass density [kg/m3] | speed of sound [m/s]
278.15 K | 1135.14 | –
283.15 K | 1131.29 | –
288.15 K | 1127.43 | 1643.9
293.15 K | 1123.56 | 1629
298.15 K | 1119.69 | 1613.5
303.15 K | 1115.81 | 1599.1
308.15 K | 1111.92 | 1584.6
313.15 K | 1108.03 | 1569.1
318.15 K | 1104.13 | 1554.7
323.15 K | 1100.22 | –
328.15 K | 1096.3 | –
333.15 K | 1092.38 | –

O [water]
[1]
Settings | mass density [kg/m3] | speed of sound [m/s]
278.15 K | 999.965 | –
283.15 K | 999.698 | –
313.15 K | – | 1528.8
318.15 K | – | 1536.7
323.15 K | 988.027 | –
328.15 K | 985.682 | –
333.15 K | 983.186 | –

O [water] + OCCOCCOCCO
[2]
Settings | mass density [kg/m3] | speed of sound [m/s]
278.15 K | 999.965 | –
283.15 K | 999.698 | –
313.15 K | – | 1528.8
318.15 K | – | 1536.7
323.15 K | 988.027 | –
328.15 K | 985.682 | –
333.15 K | 983.186 | –

— the NIST ThermoML archive (doi:10.1016/j.jct.2015.05.024)
